Test results from article PMC7162861, “Synthesis, cytotoxicity, pharmacokinetic profile, binding with DNA and BSA of new imidazo[1,2-a]pyrazine-benzo[d]imidazol-5-yl hybrids” (Scientific Reports, 2020).
Like-named read-outs stand apart in the source and are kept apart here.

Assays:
ACHN = experiment: NCI cytotoxicity screen, Renal Cancer panel; type: cell-based
Experimental: (§1) Cytotoxicity was performed at National Cancer Institute (NCI), Bethesda, USA as per their protocols.

RXF 393 = experiment: NCI cytotoxicity screen, Renal Cancer panel; type: cell-based
Experimental: as §1

UO-31 = experiment: NCI cytotoxicity screen, Renal Cancer panel; type: cell-based
Experimental: as §1

[1] = molecular target: T1, bovine serum albumin (BSA) (Bos taurus, UniProt P02769); experiment: BSA binding, fluorescence quenching (Stern-Volmer, Scatchard)
Experimental: The stock solution of compound 31 (10^−3 M) was prepared in DMSO and diluted to required concentration using appropriate buffer solution. Calf thymus (CT)-DNA was dissolved in 10 mM Tris buffer of pH 7.4 having 1 mM EDTA at room temperature. The purity of DNA solution was determined by using the ratio of absorbance at 260 nm and 280 nm wavelength. Extinction coefficient 6600 M^−1 cm^−1 of single nucleotide at 260 nm was used to determine the concentration of the DNA solution. The stock solution of BSA (10^−3 M) was prepared in distilled water and stored at 4 °C temperature.
[…] The dissociation constant of compound 31 was estimated by titrating the complex of compound 31 (10 µM) and BSA (10 µM) with increasing concentration of ibuprofen (0–15 µM), upon excitation at 280 nm. All emission spectra were recorded in the range of 200 to 800 nm.
Binding parameters KSV and Kq were calculated using the Stern-Volmer equation (Eq. 2):2 F0/F=1+Ksv[Analyte]=1+Kqτo[Analyte]
Fo denotes the emission intensity of derivative 31/BSA free from analyte (CT-DNA/ derivative 31), whereas, F denotes the emission intensity of derivative 31/BSA bound with analyte (CT-DNA/derivative 31). The values of KSV and Kq were determined from the plot of Fo/F vs. [analyte].
The binding parameters Kbin and n were determined using Scatchard equation (Eq. 3):3 logF0−F/F=logKbin+nlog[analyte]
Fo and F denote similar factors as those of the above Stern-Volmer equation. The values of Kbin and n were determined from the plot of log (Fo − F)/F vs. log [analyte].

EXVX = experiment: NCI cytotoxicity screen, Non-Small Cell Lung Cancer panel; type: cell-based; conditions: Homo sapiens
Experimental: as §1

NCI-H460 = experiment: as above; type: cell-based
Experimental: as §1

HOP-92 = experiment: as above; type: cell-based
Experimental: as §1

A549/ATCC = experiment: as above; type: cell-based
Experimental: as §1

HOP-62 = experiment: as above; type: cell-based
Experimental: as §1

[2] = test system: NCI-60 cancer cell panels; experiment: NCI cytotoxicity screen, full panel summary; type: cell-based
Experimental: as §1

[3] = molecular target: T1, bovine serum albumin (BSA); experiment: Förster resonance energy transfer (FRET) with BSA; type: binding; conditions: BSA donor, compound acceptor
Text: The energy transfer efficiency from BSA and compound 31 can be calculated using Eq. 5 [27]:5 E=1−F/Fo=Ro6/Ro6+r^6
F and Fo are the BSA fluorescence intensities in the presence and absence of the derivative 31, r is the distance among the acceptor and the donor, whereas Ro is the critical distance when the efficiency of energy transfer is 50%. Ro can be calculated using Eq. 6 [28]:6 Ro6=8.8×10^−25k^2η^−4ΦJ where k^2 is the orientation factor of the dipole, ɳ is the refracted index of the medium, Ф the fluorescence quantum yield of the donor, and J is the overlap integral of the fluorescence emission spectrum of the donor with the absorption spectrum of the acceptor. The value of J can be calculated using Eq. 7 [29]:7 J=ΣF(λ)ε(λ)λ^4Δλ/ΣF(λ)Δλ where F(λ) is fluorescence intensity of the donor i.e. BSA without acceptor and ε(λ) is molar absorption coefficient of the acceptor i.e. compound 31 at the wavelength λ, respectively. The values of k^2 = 2/3, ɳ = 1.336 and Ф = 0.15 were used for the calculations.

MDA-MB-468 = experiment: NCI cytotoxicity screen, Breast Cancer panel; type: cell-based; conditions: Homo sapiens, five dose 0.01–100 µM
Experimental: as §1

MDA-MB-231/ATCC = experiment: NCI cytotoxicity screen, Breast Cancer panel; type: cell-based
Experimental: as §1

MCF7 = experiment: NCI cytotoxicity screen, Breast Cancer panel; type: cell-based
Experimental: as §1

T-47D = experiment: NCI cytotoxicity screen, Breast Cancer panel; type: cell-based
Experimental: as §1

BT-549 = experiment: NCI cytotoxicity screen, Breast Cancer panel; type: cell-based
Experimental: as §1

HS 578 T = experiment: NCI cytotoxicity screen, Breast Cancer panel; type: cell-based
Experimental: as §1

NCI-H322M = experiment: NCI cytotoxicity screen, Non-Small Cell Lung Cancer panel; type: cell-based, human
Experimental: as §1

NCI-H226 = experiment: as above; type: cell-based, human
Experimental: as §1

NCI-522 = experiment: as above; type: cell-based, human
Experimental: as §1

NCI-H23 = experiment: as above; type: cell-based, human; conditions: five dose 0.01–100 µM
Experimental: as §1

CT-DNA = experiment: Thermal denaturation of CT-DNA; type: binding, calf; conditions: CT-DNA 8.5 µM : compound 10 µM, pH 7.4
Experimental: DNA melting studies were completed by measuring the absorption spectra at 260 nm of CT-DNA (8.5 µM) and CT-DNA-derivative 31 complex (8.5 µM:10 µM) in phosphate buffer (pH 7.4) at varying temperature from 20 to 100 °C using spectrophotometer connected with Peltier.

[4] = Homo sapiens, five dose 0.01–100 µM, read-out: LC50 (the source's name)

T1 sequence (P02769 25-607): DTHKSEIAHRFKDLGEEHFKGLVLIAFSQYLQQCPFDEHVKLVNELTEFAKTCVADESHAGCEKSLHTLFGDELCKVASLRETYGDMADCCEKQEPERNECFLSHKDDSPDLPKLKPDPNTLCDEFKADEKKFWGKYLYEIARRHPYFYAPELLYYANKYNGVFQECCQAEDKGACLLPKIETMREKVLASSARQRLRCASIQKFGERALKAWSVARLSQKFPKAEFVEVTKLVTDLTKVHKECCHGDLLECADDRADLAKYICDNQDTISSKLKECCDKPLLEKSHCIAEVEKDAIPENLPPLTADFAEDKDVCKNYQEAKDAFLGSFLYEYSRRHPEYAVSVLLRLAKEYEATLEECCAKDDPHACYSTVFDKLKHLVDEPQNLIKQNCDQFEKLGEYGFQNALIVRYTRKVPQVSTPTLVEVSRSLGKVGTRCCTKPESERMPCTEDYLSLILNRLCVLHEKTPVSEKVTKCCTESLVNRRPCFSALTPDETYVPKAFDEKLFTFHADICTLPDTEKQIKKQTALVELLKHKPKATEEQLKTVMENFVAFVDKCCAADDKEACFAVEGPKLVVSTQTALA

`c1cn2cc(-c3ccc4ncn(C5CCCCC5)c4c3)nc(-c3ccc4c(c3)ncn4C3CCCCC3)c2n1` [Compound 31, 8-(1-cyclohexyl-1H-benzo[d]imidazol-5-yl)-6-(1-cyclohexyl-1H-benzo[d]imidazol-6-yl)imidazo[1,2-a]pyrazine] gave a GI50 (ACHN; Homo sapiens) of 1680 nM, a CC50 (ACHN; [4]) of 5610 nM and a TGI (ACHN; five dose 0.01–100 µM) of 3070 nM. It also gave a GI50 (RXF 393; Homo sapiens) of 1510 nM, a CC50 (RXF 393; [4]) of 5940 nM and a TGI (RXF 393; five dose 0.01–100 µM) of 2990 nM. It also gave a GI50 (UO-31; Homo sapiens) of 1490 nM, a CC50 (UO-31; [4]) of 5460 nM and a TGI (UO-31; five dose 0.01–100 µM) of 2850 nM. The “Stern-Volmer quenching constant (Ksv)” value ([1]; BSA) was 104000 M⁻¹, the “apparent bimolecular quenching constant (Kq)” value ([1]; BSA) was 1.04e+13 M⁻¹ s⁻¹ and the “quenching of BSA emission band at 350 nm” value ([1]; BSA 10 µM, compound 0–16 µM) was “up to 70%”. For the same compound, the Kbin ([1]; BSA, Scatchard) was 47000 M⁻¹, the “n (number of binding sites)” value ([1]; BSA, Scatchard) was 0.92 and the Kd ([1]; BSA, Scatchard, read-out: binding constant (Kbin) (converted)) was 21300 nM. The KSV ([1]; BSA, Stern-Volmer constant) was 104000 M⁻¹, the Kq ([1]; BSA, apparent bimolecular quenching constant) was 1.04e+13 M⁻¹ s⁻¹ and the GI50 (EXVX) was 1970 nM. For the same compound, the GI50 (NCI-H460; Homo sapiens) was 1980 nM, the CC50 (NCI-H460; [4]) was 8160 nM and the TGI (NCI-H460; five dose 0.01–100 µM) was 4020 nM. For the same compound, the GI50 (HOP-92; Homo sapiens) was 1540 nM, the LC50 (HOP-92; Homo sapiens, five dose 0.01–100 µM) was 6730 nM and the TGI (HOP-92; five dose 0.01–100 µM) was 3220 nM. The TGI (A549/ATCC; A549/ATCC, five dose 0.01–100 µM) was 3540 nM, the GI50 (A549/ATCC; Homo sapiens, A549) was 1940 nM and the CC50 (A549/ATCC; Homo sapiens, A549/ATCC, five dose 0.01–100 µM, read-out: LC50 (the source's name)) was 6460 nM. For the same compound, the GI50 (HOP-62; Homo sapiens) was 2000 nM, the CC50 (HOP-62; [4]) was 6900 nM and the TGI (HOP-62; five dose 0.01–100 µM) was 3720 nM. For the same compound, the GI50 ([2]; Homo sapiens, read-out: Full panel mean-graph midpoint (MG-MID) GI50) was 2120 nM, the GI50 ([2]; Homo sapiens, read-out: GI50 range over nine panels of cell lines) was 800 to 2870 nM and the CC50 ([2]; Homo sapiens, average over all cancer cell lines, five dose, read-out: Full panel mean-graph midpoint (MG-MID) LC50) was 6630 nM. The “Full panel mean-graph midpoint (MG-MID) TGI” value ([2]; average over all cancer cell lines, five dose) was 4730 nM, the “number of cell lines with cytostatic effect” value ([2]; single dose 10 µM) was 8 and the “number of cell lines with cytotoxic effect” value ([2]; single dose 10 µM) was 51. The “critical distance (Ro)” value [3] was 2.29 nm, the “distance between BSA and the compound (r)” value [3] was 2.08 nm and the “energy transfer efficiency (E)” value [3] was 64%. For the same compound, the “overlap integral value (J)” value [3] was 5.35 × 10^−15 cm^3 L mol^−1, the GI50 (MDA-MB-468) was 2320 nM and the CC50 (MDA-MB-468; read-out: LC50 (the source's name)) was over 1000 nM. The GI50 (MDA-MB-231/ATCC; Homo sapiens, MDA-MB-231) was 1290 nM, the CC50 (MDA-MB-231/ATCC; Homo sapiens, MDA-MB-231/ATCC, five dose 0.01–100 µM, read-out: LC50 (the source's name)) was 7330 nM and the TGI (MDA-MB-231/ATCC; MDA-MB-231/ATCC, five dose 0.01–100 µM) was 3080 nM. The GI50 (MCF7; Homo sapiens) was 1800 nM, the CC50 (MCF7; [4]) was over 1000 nM and the TGI (MCF7; five dose 0.01–100 µM) was 4580 nM. The GI50 (T-47D; Homo sapiens, T47D) was 1900 nM, the CC50 (T-47D; Homo sapiens, T47D, T-47D, five dose 0.01–100 µM, read-out: LC50 (the source's name)) was over 1000 nM and the TGI (T-47D; T-47D, five dose 0.01–100 µM) was 4690 nM. The GI50 (BT-549; Homo sapiens) was 1940 nM, the CC50 (BT-549; [4]) was 6820 nM and the TGI (BT-549; five dose 0.01–100 µM) was 3640 nM. For the same compound, the TGI (HS 578 T; HS 578 T, five dose 0.01–100 µM) was 6740 nM, the GI50 (HS 578 T; Homo sapiens, Hs-578T) was 2390 nM and the inhibition at 10 µM (HS 578 T; Homo sapiens, Hs-578T, read-out: Percent growth inhibition) was 96.6%. For the same compound, the CC50 (HS 578 T; Homo sapiens, HS 578 T, five dose 0.01–100 µM, read-out: LC50 (the source's name)) was over 1000 nM, the GI50 (NCI-H322M; Homo sapiens) was 1910 nM and the inhibition at 10 µM (NCI-H322M; Homo sapiens, single dose 10 µM, negative = lethal, read-out: Percent growth inhibition) was 98.8%. It also gave a TGI (NCI-H322M; five dose 0.01–100 µM) of 4140 nM, a GI50 (NCI-H226; Homo sapiens) of 1690 nM and a TGI (NCI-H226; five dose 0.01–100 µM) of 3790 nM. The GI50 (NCI-522; Homo sapiens) was 1740 nM, the TGI (NCI-522; NCI-522, five dose 0.01–100 µM) was 3400 nM and the GI50 (NCI-H23; Homo sapiens) was 2010 nM. For the same compound, the TGI (NCI-H23) was 4090 nM and the “∆Tm” value (CT-DNA) was 12 °C.
